In patent publication US10471083B2, “Formulations of aminoglycoside and fosfomycin in combination for treatment of ventilator associated pneumonia (VAP) and ventilator associated tracheal (VAT) bronchitis” (SAVARA INC., priority 2011, dated 2019):
≈ marks a conversion by molar mass, not a printed value.

What was measured:
pseudomonas isolates = conditions: most pseudomonas isolates; cited from earlier work
[1] = system: Stenotrophomonas maltophilia; conditions: cited from earlier work
Pseudomonas aeruginosa = conditions: cited from earlier work
[2] = design: species or system beagle dogs; conditions: dog, in vivo
Text: Toxicokinetic parameters were estimated using WinNonlin pharmacokinetic software version 5.2.1 (Pharsight Corp.). A non-compartmental approach consistent with the extravascular route of administration was used for parameter estimation. All parameters were generated from individual amikacin and fosfomycin concentrations in plasma from Days 1 and 7.

[3] = Aerosol particle size distribution (MMAD) in the dog study; type: physicochemical; conditions: aerosol of the combined formulation, analytical methods
Pseudomonas = conditions: cited from earlier work
MRSA = conditions: data from the 1980's; cited from earlier work

Row | Structure (SMILES) | MIC90 (pseudomonas isolates) | MIC90 [1] | factor of increase of in vitro activity of amikacin by fosfomycin (Pseudomonas aeruginosa) | accumulation following repeat dosing [2] | particle size distribution (MMAD) [3] | MIC90 (Pseudomonas) | MIC90 (MRSA)
1 | NC[C@H]1O[C@H](O[C@H]2[C@H](O)[C@@H](O[C@H]3O[C@H](CO)[C@@H](O)[C@H](N)[C@H]3O)[C@H](N)C[C@@H]2N)[C@H](N)C[C@@H]1O [tobramycin] | 64 µg/mL (≈ 137 µM) |  |  |  |  |  | 
2 | NCC[C@H](O)C(=O)N[C@@H]1C[C@H](N)[C@@H](O[C@H]2O[C@H](CN)[C@@H](O)[C@H](O)[C@H]2O)[C@H](O)[C@H]1O[C@H]1O[C@H](CO)[C@@H](O)[C@H](N)[C@H]1O [amikacin] |  | > 64 µg/mL | 64 | no clear indication of accumulation | 2.80 μm | 32 µg/mL (≈ 54.6 µM) | 
3 | C[C@@H]1O[C@@H]1P(=O)(O)O [fosfomycin] |  |  |  | no clear indication of accumulation |  |  | 32 µg/mL (≈ 232 µM)
